Assay results: US20230357765A1, “USE OF LONG NON-CODING RNAS IN MEDULLOBLASTOMA” (THE JOHNS HOPKINS UNIVERSITY, priority 2020, published 2023)
l = locked nucleic acid (LNA); d = 2'-deoxy (DNA)

Experiments:
[1] = test system: D425 Med and MED211 intracranial xenografts; experiment: Intracranial MB xenografts treated with JQ1, bioluminescence imaging and qPCR of tumors; type: in vivo, NOD-SCID mice; settings: JQ1 50 mg/kg intraperitoneal on alternating days for 14 days; versus DMSO
Method: FIGS. 10A-10C. JQ1 regulates lnc-HLX-2-7 via MYC in vivo. (FIG. 10A) D425 Med and MED211 cells expressing luciferase were implanted into the […] of NOD-SCID mice. Seven days after injection, mice were administered DMSO or JQ1. Tumor formation was assessed by bioluminescence imaging. Changes in bioluminescent signal were examined weekly after tumor implantation. (FIG. 10B) Quantification of total photon counts from mice treated with JQ1 or DMSO. n=4, *p<0.05, Student’s t-test. (FIG. 10C) Expression levels of MYC and lnc-HLX-2-7 were examined by qPCR in DMSO or JQ1-treated mouse xenografts. Relative expression levels compared to those in the DMSO-treated tumor are indicated on the y-axis (n=4). Error bars indicate s.e.m. n=4, *p<0.01, Student’s t-test.
Medulloblastoma Xenografts (Intracranial). All mouse studies were approved and performed in accordance with the policies and regulations of the Animal Care and Use Committee of Johns Hopkins University. Intracranial MB xenografts were established by injecting D425 Med cells, MED211 cells, D425 Med cells with lnc- HLX-2-7 deleted, and MED211 cells with lnc-HLX-2-7 deleted into the cerebellums of NOD-SCID mice (Jackson Laboratory). […] Tumor growth was evaluated by weekly bioluminescence imaging using an in vivo spectral imaging system (IVIS Lumina II, Xenogen).

[2] = test system: MYC; experiment: MYC expression in JQ1-treated cells, qRT-PCR; type: cell-based, human; settings: D425 Med and MED211 cells; JQ1 100 or 300 nM; relative to DMSO
Method: (§1) Cell Culture. Cell lines were authenticated using single tandem repeat profiling. D425 Med cells were cultured in DMEM/ F12 with 10% serum and 1% glutamate/penicillin/streptomycin. MED211 cells were cultured in medium composed of 30% Ham’s F12/70% DMEM, 1% antibiotic antimycotic, 20% B27 supplement, 5 µg/mL heparin, 20 ng/mL epidermal growth factor (EGF), and 20 ng/mL fibroblast growth factor 2. DAOY cells were cultured in DMEM with 10% serum and 1% glutamate/penicillin/streptomycin. All cells were grown in a humidified incubator at 37° C., 5% CO2. For blocking of bromodomain and extraterminal domain family (BET) bromodomain protein in D425 Med and MED211 cells, Jun Qi 1 (JQ1) (SML1524-5MG, Sigma Aldrich) was added, and the medium was changed every other day.
(§2) Quantitative Real-Time PCR. Total RNA was purified using the Direct-zol RNA Miniprep kit (Zymo Research). To obtain RNA from xenografts, tumor tissues were pulverized and then used for purification. Quantitative PCR was carried out using SYBR Green mRNA assays as previously described.^8 Primer sequences are listed in Tables 8-9 and Supplementary Table 2 (available online).
(§3) JQ1 Regulates lnc-HLX-2-7via MYC. […] In addition, downregulation of lnc-HLX-2-7 by JQ1 was also confirmed in vivo (FIGS. 10).

[3] = test system: lnc-HLX-2-7; experiment: lnc-HLX-2-7 expression in JQ1-treated cells, qRT-PCR; type: cell-based, human; settings: D425 Med and MED211 cells; JQ1 100 or 300 nM; relative to DMSO
Method: as §1, §2, §3

[4] = test system: D425 Med and MED211 MB cells; experiment: Cell proliferation assay, living cells counted by trypan blue staining; type: cell-based, human
Method: as §1
Cell Proliferation, Apoptosis, and 3D Colony Formation Assays. Cells were plated in 96-well plates at 5 × 10^3 cells per well in triplicate. After 72 hours of ASO or siRNA transfection, living cells were counted by trypan blue staining. Apoptotic cells were analyzed using a GloMax luminometer (Promega) with conditions optimized for the Caspase-Glo 3/7 Assay. […] Colony number was determined using the EVE cell counter (Nano Entek), and staining intensity was analyzed using ImageJ software.

[5] = test system: HLX; experiment: HLX expression after ASO treatment, qRT-PCR; type: cell-based, human; settings: D425 Med and MED211 cells treated with ASO
Source text: FIG. 8. lnc-HLX-2-7regulates the expression of HLX coding gene. Expression levels of HLX in D425 Med and MED211 cells treated with ASO against the indicated genes in the x-axis. Relative expression level to mock is indicated in the y-axis. *p<0.01, Kruskal-Wallis analysis.
as §2
(§4) Antisense Oligonucleotides. Lnc-HLX-2-7 Antisense oligonucleotides (ASOs) were designed using the Integrated DNA Technologies (IDT) Antisense Design Tool (IDT). ASO knockdowns were performed with 50 nM (final concentration) locked nucleic acid (LNA) GapmeRs transfected with Lipofectamine 3000 (Thermo Fisher Scientific). All ASOs were modified with phosphorothioate (PS) linkages.

[6] = test system: lnc-HLX-2-7; experiment: ASO knockdown of lnc-HLX-2-7, expression by qRT-PCR; type: cell-based, human; settings: D425 Med and MED211 cells; 50 nM ASO, Lipofectamine 3000; compared with ASO-Luc; P < 0.01
Method: FIGS. 48A-48C. Confirmation of ASO design and knockdown effect of lnc-HLX-2-7. (FIG. 48A) Diagram showing the sites targeted by each ASO. (FIGS. 48B-48C) Expression level of lnc-HLX-2-7in D425 Med (FIG. 48B) and MED211 (FIG. 48C) cells treated with ASO against the indicated genes on the x-axis. ASOs were transfected at 50 nM for 72 h using Lipofectamine 3000 (Thermo Fisher Scientific, Waltham MA). The efficiency was determined by qRT-PCR. Relative expression level to luciferase (Luc) gene is indicated on the y-axis. *p<0.01, Kruskal-Wallis analysis.
as §2
as §4, with “linkages. […]” for “linkages.”

[7] = test system: D425 Med and MED211 MB cells; experiment: Apoptosis assay (Caspase-Glo 3/7); type: cell-based, human; settings: 72 hours after ASO transfection, P < 0.01
Method: Cell Proliferation, Apoptosis, and 3D Colony Formation Assays. Cells were plated in 96-well plates at 5 × 10^3 cells per well in triplicate. After 72 hours of ASO or siRNA transfection, living cells were counted by trypan blue staining. Apoptotic cells were analyzed using a GloMax luminometer (Promega) with conditions optimized for the Caspase-Glo 3/7 Assay. For the 3D colony formation assay, cells were seeded in 24-well plates at a density of 1 × 10^2 cells/well and were stained with crystal violet solution approximately 14 days later. Colony number was determined using the EVE cell counter (Nano Entek), and staining intensity was analyzed using ImageJ software.

Molecule | lnc-HLX-2-7 expression in xenograft tumors [1] | MYC expression [2] | lnc-HLX-2-7 expression [3] | cell growth (viable cell numbers) with JQ1 ([4]; effect suppressed by overexpression of lnc-HLX-2-7 (pcDNA4-lnc-HLX-2-7)) | HLX expression [5] | lnc-HLX-2-7 expression [6] | MB cell growth (viable cell numbers) ([4]; 72 hours after ASO transfection, P < 0.01) | apoptosis (apoptotic cell numbers) [7]
Cc1sc2c(c1C)C(c1ccc(Cl)cc1)=N[C@@H](CC(=O)OC(C)(C)C)c1nnc(C)n1-2 [JQ1, Jun Qi 1 (JQ1)] | downregulation | downregulated | downregulated | cell growth inhibition |  |  |  | 
+T^∗+G^∗+A^∗G^∗A^∗G^∗A^∗T^∗T^∗A^∗A^∗T^∗C^∗T^∗A^∗G^∗A^∗T^∗+T^∗+G^∗+C (TGAGAGATTAATCTAGATTGC; sugars from the 5' end l3 d15 l3, all phosphorothioate, methylation of C not given here) [ASO-lnc-HLX-2-7] |  |  |  |  | significantly reduced | significantly decreased | significantly suppressed | induced apoptosis
